Where two headings read alike, the source gives them in different places.
Legend:
[1] = Plasma protein binding, equilibrium dialysis, rat plasma; assay type: in vitro ADME; conditions: Sprague Dawley, read-out: mean (±SD) percentage of plasma protein bound (converted)
Experimental: The plasma protein binding of pafolacianine was studied in vitro in fresh human, Sprague Dawley rat, and Beagle dog plasma using equilibrium dialysis. Pafolacianine was introduced into plasma samples, in duplicate, resulting in a final concentration of 5 μM. The mean (±SD) percentage of plasma protein bound pafolacianine was 99.1±0.1%, 98.6±0.1%, and 93.7±1.5% for rat, dog and human, respectively. Pafolacianine was highly bound to plasma protein in all species examined.

[2] = Partitioning into red blood cells; assay type: in vitro ADME
[3] = Single IV dose toxicokinetics in rats; assay type: in vivo; conditions: Study Day 0; for AUC(0-t) / C0: rat, in vivo
Experimental: Following a single IV administration of pafolacianine to male and female rats, systemic exposure (AUClast) to pafolacianine appeared similar between males and females at the 46.3 mg/kg dose levels (Table 2). There was a slight trend for higher AUClast values in females versus males at the two lower dose levels; however, due to sparse sampling of blood, the significance of this slight trend could not be evaluated. Values for AUClast were calculated, but the time associated with the last measurable concentration was variable (Tlast; 5 min to 24 hr), which confounded the ability to assess dose proportionality. Terminal data were generally sparse and/or the terminal phase was not sufficiently defined (FIG. 4). Thus, parameters dependent on accurate determination of the terminal phase (AUCinf, T1/2, CL, Vz) were not reported.

[4] = Embryo-fetal development study in rats; assay type: in vivo
Experimental: Pafolacianine was intravenously administered at doses of, during the period of organogenesis namely, 0.015, 0.15, and 1.5 mg/kg/day from gestational day (GD) 6 to GD17 in rats (human equivalent doses (HEDs) of 0.002, 0.024 and 0.242 mg/kg/day) and 0.3, 1, and 3 mg/kg/day from GD7 to GD20 in rabbits (HEDs of 0.097, 0.323 and 0.968 mg/kg/day). […] No-Observed-Adverse-Effect-Levels were 1.5 mg/kg/day in rats and 3 mg/kg/day in rabbits.

[5] = Repeat once-weekly IV dose toxicokinetics in dogs; assay type: in vivo; conditions: for half-life / AUC(0-inf) / AUC(0-t) / C0 / clearance / Vd: dog, in vivo; for Vd: read-out: Vss
Experimental: Overall, drug concentrations increased with ascending dose, noting that the mean profiles at the two highest dose levels were overlapping. Systemic exposure (AUClast) to pafolacianine was approximately dose-proportional over the range of doses administered (0.9 to 13.9 mg/kg) and within the observed variability (Table 5). […] On both Day 0 and Day 13, CL was slow (relative to hepatic blood flow) and Vss was moderate. Mean T1/2 ranged from approximately 13 to 18 hours.

[6] = female rats, 3.1 mg/kg single IV
[7] = female rats, 30.8 mg/kg single IV
[8] = female rats, 46.3 mg/kg single IV
[9] = male rats, 30.8 mg/kg single IV
[10] = male rats, 46.3 mg/kg single IV
[11] = female, iv, 0.9 mg/kg, dogs F, 0.9 mg/kg once-weekly IV, Day 0
[12] = female, iv, 0.9 mg/kg, dogs F, 0.9 mg/kg once-weekly IV, Day 13
[13] = female, iv, 9.3 mg/kg, dogs F, 9.3 mg/kg once-weekly IV, Day 0

## CC1(C)C(=CC=C2CCCC(C=CC3=[N+](CCCCS(=O)(=O)[O-])c4ccc(S(=O)(=O)O)cc4C3(C)C)=C2Oc2ccc(CC(NC(=O)c3ccc(NCc4cnc5nc(N)[nH]c(=O)c5n4)cc3)C(=O)O)cc2)N(CCCCS(=O)(=O)O)c2ccc(S(=O)(=O)O)cc21 (stereo not drawn) [pafolacianine]
[1]
  fraction unbound at 5 μM: 0.009
[2]
  partitioning into red blood cells: No notable partitioning
[3]; [6]
  DN AUClast: 0.816 (μg · h/mL)/(mg/kg)
  AUC(0-t): 2530 ng·h/mL
  C0: 16.2 µg/mL
[3]; [7]
  DN AUClast: 5.39 (μg · h/mL)/(mg/kg)
  AUC(0-t): 166000 ng·h/mL
  C0: 178 µg/mL
[3]; [8]
  DN AUClast: 5.51 (μg · h/mL)/(mg/kg)
  AUC(0-t): 255000 ng·h/mL
  C0: 231 µg/mL
[3]; male rats, 3.1 mg/kg single IV
  DN AUClast: 0.184 (μg · h/mL)/(mg/kg)
  AUC(0-t): 570 ng·h/mL
  C0: 6.87 µg/mL
[3]; [9]
  DN AUClast: 3.86 (μg · h/mL)/(mg/kg)
  AUC(0-t): 119000 ng·h/mL
  C0: 65.7 µg/mL
[3]; [10]
  DN AUClast: 6.18 (μg · h/mL)/(mg/kg)
  AUC(0-t): 286000 ng·h/mL
  C0: 174 µg/mL
[4]; rat
  Estimated systemic exposure relative to human exposure at 0.025 mg/kg (AUC comparison): 158 times
[4]; rats, 0.015, 0.15, 1.5 mg/kg/day IV
  maternal toxicity and embryo-fetal development toxicity: No significant drug-related maternal toxicity and embryo-fetal development toxicity
[4]; rats, IV, GD6 to GD17
  No-Observed-Adverse-Effect-Level: 1.5 mg/kg/day
[5]; both sexes, intravenous, dogs, all doses and days, read-out: Mean T1/2 range
  half-life: 13 to 18 h
[5]; dogs F, 0.9 mg/kg once-weekly IV, Day 0
  DN AUClast: 9.34 (μg · h/ml) (mg/kg)
[5]; dogs F, 0.9 mg/kg once-weekly IV, Day 13
  DN AUClast: 7.36 (μg · h/ml) (mg/kg)
[5]; dogs F, 9.3 mg/kg once-weekly IV, Day 0
  DN AUClast: 5.46 (μg · h/ml) (mg/kg)
[5]; dogs F, 9.3 mg/kg once-weekly IV, Day 13
  DN AUClast: 6.21 (μg · h/ml) (mg/kg)
[5]; dogs F, 13.9 mg/kg once-weekly IV, Day 0
  DN AUClast: 5.74 (μg · h/ml) (mg/kg)
[5]; dogs F, 13.9 mg/kg once-weekly IV, Day 13
  DN AUClast: 6.81 (μg · h/ml) (mg/kg)
[5]; dogs M, 0.9 mg/kg once-weekly IV, Day 0
  DN AUClast: 5.27 (μg · h/ml) (mg/kg)
[5]; dogs M, 0.9 mg/kg once-weekly IV, Day 13
  DN AUClast: 5.64 (μg · h/ml) (mg/kg)
[5]; dogs M, 9.3 mg/kg once-weekly IV, Day 0
  DN AUClast: 6.24 (μg · h/ml) (mg/kg)
[5]; dogs M, 9.3 mg/kg once-weekly IV, Day 13
  DN AUClast: 7.03 (μg · h/ml) (mg/kg)
[5]; dogs M, 13.9 mg/kg once-weekly IV, Day 0
  DN AUClast: 5.65 (μg · h/ml) (mg/kg)
[5]; dogs M, 13.9 mg/kg once-weekly IV, Day 13
  DN AUClast: 6.18 (μg · h/ml) (mg/kg)
[5]; dogs, once-weekly dosing for 3 weeks
  accumulation or changes in TK after repeated dosing: no accumulation or changes in TK were evident
[5]; [11]
  AUC(0-inf): 10500 ng·h/mL
  AUC(0-t): 8400 ng·h/mL
  C0: 4.75 µg/mL
  clearance: 1.59 mL/min/kg
  Vd: 1.47 L/kg
[5]; female, iv, 0.9 mg/kg, dogs F, 0.9 mg/kg once-weekly IV, Day 0, read-out: T1/2 (converted)
  half-life: 15 h
[5]; [12]
  AUC(0-inf): 8420 ng·h/mL
  AUC(0-t): 6630 ng·h/mL
  C0: 8.92 µg/mL
  clearance: 1.8 mL/min/kg
  Vd: 1.49 L/kg
[5]; female, iv, 0.9 mg/kg, dogs F, 0.9 mg/kg once-weekly IV, Day 13, read-out: T1/2 (converted)
  half-life: 13.1 h
[5]; [13]
  AUC(0-inf): 69300 ng·h/mL
  AUC(0-t): 50800 ng·h/mL
  C0: 54.9 µg/mL
  clearance: 2.35 mL/min/kg
[5]; female, iv, 9.3 mg/kg, dogs F, 9.3 mg/kg once-weekly IV, Day 0, read-out: T1/2 (converted)
  half-life: 15.2 h

From patent US11986540B2, “Compositions including pafolacianine for the identification of malignant lesions” (ON TARGET LABORATORIES, LLC., priority 2022, dated 2024)
